Results on 31 compounds are retold here after patent publication US9266883B2, “Ring-fused bicyclic pyridyl derivatives as FGFR4 inhibitors” (Novartis AG, priority 2013, dated 2016).

The first assay deals with FGFR4 (GST-FGFR4(388-802)) (Homo sapiens (Human), UniProt P22455). The assay is described as follows: In-vitro biochemical kinase assay for FGFR4 (Caliper microfluidic mobility shift). As to conditions: biochemical FGFR4 assay; read-out: Biochemical IC50.
Chain of FGFR4 (GST-FGFR4(388-802)) (P22455 388-802): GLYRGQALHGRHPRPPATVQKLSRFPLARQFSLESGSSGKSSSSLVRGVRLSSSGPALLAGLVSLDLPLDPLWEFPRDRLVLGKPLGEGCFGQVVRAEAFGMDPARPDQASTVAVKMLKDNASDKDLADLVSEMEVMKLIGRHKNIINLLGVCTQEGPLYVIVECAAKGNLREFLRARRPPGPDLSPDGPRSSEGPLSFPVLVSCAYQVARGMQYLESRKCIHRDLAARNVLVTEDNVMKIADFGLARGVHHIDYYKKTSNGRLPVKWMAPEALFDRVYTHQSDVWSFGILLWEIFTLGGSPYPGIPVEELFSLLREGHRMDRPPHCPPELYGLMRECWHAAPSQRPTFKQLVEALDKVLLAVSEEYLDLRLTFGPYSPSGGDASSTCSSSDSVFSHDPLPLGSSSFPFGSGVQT
With `N#Cc1cnc(NC(=O)N2CCCc3cc(CO)c(C=O)nc32)cc1OCC1CNCCO1` (stereo not shown) [N-(5-cyano-4-(morpholin-2-ylmethoxy)pyridin-2-yl)-7-formyl-6-(hydroxymethyl)-3,4-dihydro-1,8-naphthyridine-1(2H)-carboxamide], the 50% inhibitory concentration (IC50) was 350 nM. Same read-out and setting: with `N#Cc1cnc(NC(=O)N2CCCc3cc(C(F)F)c(C=O)nc32)cc1OCC(F)(F)F` [N-(5-cyano-4-(2,2,2-trifluoroethoxyl)pyridin-2-yl)-6-(difluoromethyl)-7-formyl-3,4-dihydro-1,8-naphthyridine-1(2H)-carboxamide] the figure was 110 nM; with `COc1cc(NC(=O)N2CCCc3cc(CN4CCN(C)CC4=O)c(C=O)nc32)ncc1C(F)(F)F` [7-formyl-N-(4-methoxy-5-(trifluoromethyl)pyridin-2-yl)-6-((4-methyl-2-oxopiperazin-1-yl)methyl)-3,4-dihydro-1,8-naphthyridine-1(2H)-carboxamide], 89.5 nM; with `COCC(C)(C)Nc1cc(NC(=O)N2CCCc3cc(C(F)F)c(C=O)nc32)ncc1C#N` [N-(5-cyano-4-((1-methoxy-2-methylpropan-2-yl)amino)pyridin-2-yl)-6-(difluoromethyl)-7-formyl-3,4-dihydro-1,8-naphthyridine-1(2H)-carboxamide], 4.3 nM. On the same count and under the same terms, with `COCCOc1nc(NC(=O)N2CCCc3cc(C(F)F)c(C=O)nc32)ncc1C#N` [N-(5-cyano-4-(2-methoxyethoxyl)pyrimidin-2-yl)-6-(difluoromethyl)-7-formyl-3,4-dihydro-1,8-naphthyridine-1(2H)-carboxamide] the figure was 28 nM; with `CC(=O)N(C)Cc1cc2c(nc1C=O)N(C(=O)Nc1cc(OC(C)C)c(C#N)cn1)CCC2` [N-(5-cyano-4-isopropoxypyridin-2-yl)-7-formyl-6-((N-methylacetamido)methyl)-3,4-dihydro-1,8-naphthyridine-1(2H)-carboxamide], 1.5 nM. Still for that read-out and setting: with `CC(=O)N(C)Cc1cc2c(nc1C=O)N(C(=O)Nc1cc(O[C@H]3CCOC3)c(C#N)cn1)CCC2` [(S)-N-(5-cyano-4-((tetrahydrofuran-3-yl)oxy)pyridin-2-yl)-7-formyl-6-((N-methylacetamido)methyl)-3,4-dihydro-1,8-naphthyridine-1(2H)-carboxamide] the figure was 0.4 nM; with `CC(=O)N(C)Cc1cc2c(nc1C=O)N(C(=O)Nc1cc(OCC(F)(F)F)c(C#N)cn1)CCC2` [N-(5-cyano-4-(2,2,2-trifluoroethoxyl)pyridin-2-yl)-7-formyl-6-((N-methylacetamido)methyl)-3,4-dihydro-1,8-naphthyridine-1(2H)-carboxamide], 0.5 nM; with `CCc1cc(NC(=O)N2CCCc3cc(CO)c(C=O)nc32)ncc1C#N` [N-(5-cyano-4-ethylpyridin-2-yl)-7-formyl-6-(hydroxymethyl)-3,4-dihydro-1,8-naphthyridine-1(2H)-carboxamide], 960 nM. In the case of `CC(=O)N(C)Cc1cc2c(nc1C=O)N(C(=O)Nc1cc(NCC(C)(C)O)c(C#N)cn1)CCC2` [N-(5-cyano-4-((2-hydroxy-2-methylpropyl)amino)pyridin-2-yl)-7-formyl-6-((N-methylacetamido)methyl)-3,4-dihydro-1,8-naphthyridine-1(2H)-carboxamide], the IC50 was 1.6 nM. Consider `COCC(C)Nc1cc(NC(=O)N2CCCc3cc(CN(C)C(C)=O)c(C=O)nc32)ncc1C#N` (stereo not shown) [N-(5-cyano-4-((1-methoxypropan-2-yl)amino)pyridin-2-yl)-7-formyl-6-((N-methylacetamido)methyl)-3,4-dihydro-1,8-naphthyridine-1(2H)-carboxamide], for which the IC50 came to 0.8 nM.

The same assay, now with this note: read-out: Biochemical FGFR4 IC50.
For the compound `Cc1cnc(NC(=O)N2CCCc3ccc(C=O)nc32)cc1C` [Example 6, N-(4,5-dimethylpyridin-2-yl)-7-formyl-3,4-dihydro-1,8-naphthyridine-1(2H)-carboxamide], the IC50 turned out to be 110 nM. On to `CC(C)S(=O)(=O)c1ccccc1Nc1nc(NC(=O)N2CCCc3ccc(C=O)nc32)ncc1Cl` [Example 16, N-(5-chloro-4-((2-(isopropylsulfonyl)phenyl)amino)pyrimidin-2-yl)-7-formyl-3,4-dihydro-1,8-naphthyridine-1(2H)-carboxamide], for which the IC50 is 0.2 nM. Consider `CC(C)Oc1cc(NC(=O)N2CCCc3cc(C4CCOC4)c(C=O)nc32)ncc1C#N` (racemic) [Example 264, N-(5-cyano-4-isopropoxypyridin-2-yl)-7-formyl-6-(tetrahydrofuran-3-yl)-3,4-dihydro-1,8-naphthyridine-1(2H)-carboxamide], for which the half-maximal inhibitory concentration (IC50) worked out at 1 nM. Same read-out and setting: next, `Cc1ccc(NC(=O)N2CCOc3ccc(C=O)nc32)nc1` [Example 9, 6-formyl-N-(5-methylpyridin-2-yl)-2H-pyrido[3,2-b][1,4]oxazine-4(3H)-carboxamide]: 190 nM; `CN(C)CCOc1cc(NC(=O)N2CCOc3ccc([13CH]=O)nc32)ncc1C#N` [Example 77, N-(5-cyano-4-(2-(dimethylamino)ethoxy)pyridin-2-yl)-6-form-^13C-yl-2H-pyrido[3,2-b][1,4]oxazine-4(3H)-carboxamide]: 43 nM. As to `N#Cc1cnc(NC(=O)N2CCCc3cc(CO)c(C=O)nc32)cc1NCCF` [Example 88, N-(5-cyano-4-((2-fluoroethyl)amino)pyridin-2-yl)-7-formyl-6-(hydroxymethyl)-3,4-dihydro-1,8-naphthyridine-1(2H)-carboxamide], the half-maximal inhibitory concentration (IC50) worked out at 2.3 nM. In the case of `Cc1cc2c(nc1C=O)N(C(=O)Nc1ccc(C(F)(F)F)cn1)CCC2` [Example 20, 7-formyl-6-methyl-N-(5-(trifluoromethyl)pyridin-2-yl)-3,4-dihydro-1,8-naphthyridine-1(2H)-carboxamide], the half-maximal inhibitory concentration (IC50) was 68.5 nM. Still for that read-out and setting: with `O=Cc1nc2c(cc1CO)CCCN2C(=O)Nc1ccc(C(F)(F)F)cn1` [Example 18, 7-formyl-6-(hydroxymethyl)-N-(5-(trifluoromethyl)pyridin-2-yl)-3,4-dihydro-1,8-naphthyridine-1(2H)-carboxamide] the figure was 98 nM; with `N#Cc1cnc(NC(=O)N2CCCc3ccc(C=O)nc32)cc1OC1CCOC1` (racemic) [Example 40, N-(5-cyano-4-((tetrahydrofuran-3-yl)oxy)pyridin-2-yl)-7-formyl-3,4-dihydro-1,8-naphthyridine-1(2H)-carboxamide], 0.7 nM.

`COCCNc1cc(NC(=O)N2CCCc3cc(-n4cnc(C)n4)c(C=O)nc32)ncc1C#N` [Example 260, N-(5-cyano-4-((2-methoxyethyl)amino)pyridin-2-yl)-7-formyl-6-(3-methyl-1H-1,2,4-triazol-1-yl)-3,4-dihydro-1,8-naphthyridine-1(2H)-carboxamide]: the concentration for half-maximal inhibition (IC50) came to 14 nM. Same read-out and setting: next, `N#Cc1ccc(NC(=O)N2CCCc3cc(C(F)F)c(C=O)nc32)nc1` [Example 37, N-(5-cyanopyridin-2-yl)-6-(difluoromethyl)-7-formyl-3,4-dihydro-1,8-naphthyridine-1(2H)-carboxamide]: 19 nM. For `CN1CCC2(CCN(c3cc(NC(=O)N4CCCc5ccc(C=O)nc54)ncc3C#N)CC2)C1` [Example 28, N-(5-cyano-4-(2-methyl-2,8-diazaspiro[4.5]decan-8-yl)pyridin-2-yl)-7-formyl-3,4-dihydro-1,8-naphthyridine-1(2H)-carboxamide], the half-inhibitory concentration (IC50) is 3.4 nM. Still for that read-out and setting: with `O=Cc1nc2c(cc1F)CCCN2C(=O)Nc1ccc(C(F)(F)F)cn1` [Example 15, 6-fluoro-7-formyl-N-(5-(trifluoromethyl)pyridin-2-yl)-3,4-dihydro-1,8-naphthyridine-1(2H)-carboxamide] the figure was 45 nM.

Still in this assay, the particulars now being: read-out: IC50 in the biochemical assay.
As to `COCCOc1cc(NC(=O)N2CCCc3cc(CN4CCCC4=O)c(C=O)nc32)ncc1C#N` [N-(5-cyano-4-(2-methoxyethoxyl)pyridin-2-yl)-7-formyl-6-((2-oxopyrrolidin-1-yl)methyl)-3,4-dihydro-1,8-naphthyridine-1(2H)-carboxamide], the IC50 is greater than 1000 nM. In the case of `O=Cc1nc2c(cc1CO)CCCN2C(=O)Nc1nccc(O[C@H]2CCOC2)n1` [(S)-7-formyl-6-(hydroxymethyl)-N-(4-((tetrahydrofuran-3-yl)oxy)pyrimidin-2-yl)-3,4-dihydro-1,8-naphthyridine-1(2H)-carboxamide], the IC50 is greater than 1000 nM.

In the next assay the target is Tel-FGFR4 (Homo sapiens (Human), UniProt P22455). Description: In vitro cellular kinase assay for FGFR4 (BaF3-Tel-FGFR4 cells, MSD capture ELISA of tyrosine phosphorylation). The assay is classed as cell-based. The conditions noted are these: BaF3-Tel-FGFR4 cells, 1 hour incubation; read-out: Cellular BaF3 FGFR4 IC50.
Chain of Tel-FGFR4 (P22455 other isoform, or with tags, fused parts or gaps): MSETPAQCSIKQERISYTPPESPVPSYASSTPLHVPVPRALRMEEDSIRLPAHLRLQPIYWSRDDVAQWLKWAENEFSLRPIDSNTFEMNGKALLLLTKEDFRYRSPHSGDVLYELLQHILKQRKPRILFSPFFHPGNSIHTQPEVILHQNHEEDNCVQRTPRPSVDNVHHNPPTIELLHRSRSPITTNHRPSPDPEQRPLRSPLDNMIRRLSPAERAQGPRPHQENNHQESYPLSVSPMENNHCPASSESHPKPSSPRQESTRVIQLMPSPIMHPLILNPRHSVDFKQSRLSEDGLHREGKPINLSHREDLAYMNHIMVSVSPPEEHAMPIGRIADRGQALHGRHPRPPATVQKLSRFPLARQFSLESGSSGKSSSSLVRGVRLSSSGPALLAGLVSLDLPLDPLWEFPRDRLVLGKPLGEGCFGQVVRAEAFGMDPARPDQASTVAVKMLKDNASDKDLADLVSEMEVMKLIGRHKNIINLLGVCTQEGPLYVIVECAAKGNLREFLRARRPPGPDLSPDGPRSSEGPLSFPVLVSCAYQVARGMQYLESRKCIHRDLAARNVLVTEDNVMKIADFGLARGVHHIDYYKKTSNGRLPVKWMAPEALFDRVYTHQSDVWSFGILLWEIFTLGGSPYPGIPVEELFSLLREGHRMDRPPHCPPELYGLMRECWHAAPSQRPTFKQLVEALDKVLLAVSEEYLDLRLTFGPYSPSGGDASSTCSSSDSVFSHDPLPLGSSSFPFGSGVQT
`COCCNc1cc(NC(=O)N2CCCc3cc(-c4cccs4)c(C=O)nc32)ncc1C#N` [Example 253, N-(5-cyano-4-((2-methoxyethyl)amino)pyridin-2-yl)-7-formyl-6-(thiophen-2-yl)-3,4-dihydro-1,8-naphthyridine-1(2H)-carboxamide]: the IC50 is 37 nM. Still for that read-out and setting: with `CN(C)CC1CN(c2cc(NC(=O)N3CCCc4cc(CO)c(C=O)nc43)ncc2C#N)CCO1` (racemic) [Example 81, N-(5-cyano-4-(2-((dimethylamino)methyl)morpholino)pyridin-2-yl)-7-formyl-6-(hydroxymethyl)-3,4-dihydro-1,8-naphthyridine-1(2H)-carboxamide] the figure was 146 nM. Take `CC(=O)N(C)Cc1cc2c(nc1C=O)N(C(=O)Nc1cc(OCc3cccs3)c(C#N)cn1)CCC2` [Example 239, N-(5-cyano-4-(thiophen-2-ylmethoxy)pyridin-2-yl)-7-formyl-6-((N-methylacetamido)methyl)-3,4-dihydro-1,8-naphthyridine-1(2H)-carboxamide]: the IC50 was determined as 19.6 nM.

Still in this assay, the particulars now being: Cellular BaF3 FGFR4 assay; read-out: Cellular IC50.
Take `N#Cc1cnc(NC(=O)N2CCCc3cc(C(F)F)c(C=O)nc32)cc1OCC1CNCCO1` (stereo not shown) [N-(5-cyano-4-(morpholin-2-ylmethoxy)pyridin-2-yl)-6-(difluoromethyl)-7-formyl-3,4-dihydro-1,8-naphthyridine-1(2H)-carboxamide]: the IC50 was 10.8 nM. For the compound `CNc1cc(NC(=O)N2CCCc3cc(CN4CCN(C)CC4=O)c(C=O)nc32)ncc1C#N` [N-(5-cyano-4-(methylamino)pyridin-2-yl)-7-formyl-6-((4-methyl-2-oxopiperazin-1-yl)methyl)-3,4-dihydro-1,8-naphthyridine-1(2H)-carboxamide], the IC50 was 3.7 nM.
